Measured values as given in patent US11510964B2, “Macrocyclic peptides to decrease c-Myc protein levels and reduce cancer cell growth” (University of Kansas, priority 2017, dated 2022).
Entries after “also recorded” stand apart in the source; their conditions may differ. Where two headings read alike, the source gives them in different places. Non-standard residues stand in square brackets, D forms with d. Residues, ends and D or L forms follow the SMILES beside them.

Columns and labels:
Assay type in all cases: cell-based, human
[1] = system: c-Myc protein levels in PC-3 cells; assay: Western blot analysis of cellular c-Myc protein levels
Method: Cells were seeded in 6 well plates at a density of 1×10^5 cells/well and grown to 75% confluence. Cells were treated with [D-Trp]CJ-15,208 at the indicated concentrations. Cells were then harvested as described above, and the cell pellets lysed in RIPA buffer consisting of 10 mM Tris HCl, pH 8.0, 150 mM NaCl, 1 mM EDTA, 1% Triton-X-100, 0.1% SDS, 1% sodium deoxycholate, and a protease inhibitor cocktail #P8340 (Sigma). Cell lysates were centrifuged at 13×1000 rpm for 15 min and the supernatants collected. The total protein concentration was measured in cell lysates using the standard Bradford assay. SDS gel electrophoresis was performed using 4-20% polyacrylamide gel (BioRad). Western blot analysis was performed using the following antibodies: i) c-Myc #5605 (rabbit monoclonal, 1:2000 dilution, (Cell Signaling Technologies)); actin #A2228 (mouse monoclonal, 1:5000 dilution (Sigma)), PP2A #610555 (mouse monoclonal 1:5000 dilution, BD Biosciences), p-PP2A #1155-1 (rabbit polyclonal, 1:5000 dilution (Epitomics)), Erk #9107 (mouse monoclonal, 1:2000 dilution (Cell Signaling Technologies) and p-Erk #4376 (rabbit monoclonal, 1:2000 (Cell Signaling Technologies)); Akt #2920 (mouse monoclonal, 1:2000 dilution (Cell Signaling Technologies)), p-Akt #4056 (rabbit monoclonal, 1:2000 (Cell Signaling Technologies)). The secondary antibodies, goat-anti-mouse #116-035-003 and goat-anti-rabbit #111-035-003, were obtained from Jackson ImmunoResearch Laboratory. Signal densities of the protein bands were determined using ImageJ software (NIH) and normalized to the internal loading control (actin).

c-Myc mRNA in PC-3 cells = assay: c-Myc mRNA measurement (real-time PCR); details: 10 μM, 0 h to 48 h
Method: PC-3 cells were grown in 10 cm petri dishes to 75% confluency, and then treated with [D-Trp] CJ-15,208 (10 μM) for 2-48 h. Cells were harvested and the total RNA from each sample was isolated using the Aurum Total RNA Mini Kit #732-6820 (Bio-Rad) per the manufacturer's instructions. The RNA concentration in the sample was determined using a NanoDrop ND-1000 spectrophotometer. Total RNA (1 μg) from each sample was used to synthesize cDNA using the iScript cDNA Synthesis Kit (BioRad). Real-time PCR was performed with a Power-SYBR Green PCR Master Mix (Applied Biosystems) using the following thermal cycles: initial activation at 95° C. for 5 min, followed by 40 cycles of 95° C. for 15 s and 60° C. for 1 min. The fluorescence was determined at the melting temperature of the product for 20 s (ABI PRISM 7000 Sequence Detection System, Applied Biosystems). The following primer sets were used to amplify regions of c-Myc and GAPDH (internal control): c-Myc (forward: 5′-CTG GTG CTC CAT GAG GAG-3′ (SEQ ID NO: 1), reverse: 5′-AGG TGA TCC AGA CTC TGA C-3′ SEQ ID NO: 2)) and GAPDH (forward: 5′-CCA TGG AGA AGG CTG GGG-3′ (SEQ ID NO: 3), reverse: 5′-CAAATGTGTCATGGATGACC-3′ SEQ ID NO: 4)). The levels of c-Myc mRNA were normalized to the GAPDH mRNA levels.^37

DU145 cells = details: read-out: IC50, cell growth
Method: (§1) Human prostate cancer PC-3 cells were cultured and maintained in EMEM (ATCC), non-prostate HEK (human embryonic kidney) cells were cultured in DMEM, human prostate cancer DU145, LNCaP, 22Rv1 cells were cultured in RPMI 1640 (ATCC), and normal BPH-1 prostate cells and prostate cancer C4-2 cell line were cultured in RPMI 1640 (ATCC), all containing 10% fetal bovine serum (Atlanta Biologicals) and 1% penicillin/streptomycin (Invitrogen). Cells were grown at 37° C. in humidified air with 5% CO2 and passaged every fourth to fifth day following trypsinization with trypsin/EDTA (Invitrogen).^16
(§2) PC-3, LNCaP, DU 145, 22Rv1, C4-2, BPH-1, and HEK cells were grown to a density of 2000 cells/well in 96 well plates and treated with [D-Trp]CJ-15,208 or other peptides for 24-72 h in duplicate. Media containing [D-Trp]CJ-15,208 was changed every 24 h. The proliferation of treated cells was determined using the cell proliferation reagent WST-1 (Roche) per the manufacturer's instructions and compared to […] control cells in 1% DMSO in media. After treatment with compound 10 μL of the reagent was added to the well in 100 μL culture media, and the cells incubated at 37° C. for 30 min. The absorbance of the media in each well was measured at […] using a plate reader (BioTek). The percentage cell proliferation was normalized to vehicle treated control cells calculated as: (mean absorbance of sample/mean absorbance of control cells)×100.^38
(§3) Each experiment was performed in triplicate unless otherwise stated in the figure legend. GraphPad Prism 5 was used to determine IC50 values. Data represent the mean value+/−SEM. Compound vs. vehicle treated cells in the cell cycle phase and apoptosis experiments (FIGS. 5-8) were compared using the student's t-test, with a two-tailed, unpaired method, using the Prism software. The effects of compound vs. vehicle treatment on protein levels (FIG. 10) were evaluated by one-way ANOVA with Dunnett's test for multiple comparisons.

LNCaP cells = details: read-out: IC50, cell growth
Method: as §1, §2, §3

PC-3 cells = details: read-out: IC50, cell growth
Method: as §1, §2, §3

22Rv1 cells = details: read-out: IC50, cell growth
Method: as §1, §2, §3

Question: How did the “decrease of cellular c-Myc protein levels” value ([1]; 50 μM (FIG. 1E lanes 4 and 5)) turn out when `O=C1N[C@H](Cc2c[nH]c3ccccc23)C(=O)N[C@@H](Cc2ccccc2)C(=O)N2CCC[C@@H]2C(=O)N[C@H]1Cc1ccccc1` [[D-Trp]CJ-15,208, cyclo[Phe-D-Pro-Phe-D-Trp]] (cyclo(F[dP]F[dW])) was run?
Answer: The value was 5 fold.

Question: And the “reduction of c-Myc protein levels” value ([1]; PC-3 cells, 10 μM, 48 h)?
Answer: The value was “approximately 50%”.

Question: What about the “c-Myc mRNA expression” value (c-Myc mRNA in PC-3 cells) of the same compound?
Answer: Its value is “did not affect mRNA expression; also recorded: did not alter cmyc mRNA levels”.

Question: What about the IC50 (DU145 cells; 48 h) of the same compound?
Answer: The IC50 was 1200 ± 200 nM.

Question: And the IC50 (DU145 cells; 72 h)?
Answer: Its IC50 is 700 ± 100 nM.

Question: What about the IC50 (LNCaP cells; 48 h) of the same compound?
Answer: The IC50 was over 50000 nM.

Question: And the IC50 (LNCaP cells; 72 h)?
Answer: The IC50 was 3000 ± 1000 nM.

Question: What about the IC50 (PC-3 cells; 48 h) of the same compound?
Answer: The IC50 was 16.5 ± 0.7 µM.

Question: And the IC50 (PC-3 cells; 72 h)?
Answer: The IC50 was 2 ± 1 µM.

Question: And the IC50 (22Rv1 cells; 48 h)?
Answer: The IC50 was 8.8 ± 4 µM.

Question: And the IC50 (22Rv1 cells; 72 h)?
Answer: The IC50 was 4 ± 0.8 µM.
